Measurements published in patent US10988477B2 (Merck Patent GmbH, priority 2018, dated 2021).

Assays:
GCN2 kinase = GCN2 kinase (Homo sapiens, UniProt Q9P2K8); assay: GCN2 enzyme inhibition assay (Transcreener ADP2 fluorescence polarization); type: biochemical; settings: 280 μM ATP
In short: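 FP detection of ADP (antibody plus Alexa633 tracer) after a 1 h, 25 °C kinase reaction. Enzyme 4 nM, ATP 280 μM, (RS)7 peptide 200 μM, Tris pH 7.5 buffer with MgCl2 and DTT. Percent inhibition fitted by non-linear tight-binding algorithm for IC50 and Ki(app).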

[1] = biological target: intracellular GCN2 (phosphorylation of the GCN2 substrate eIF2α) (Homo sapiens, UniProt Q9P2K8); assay: GCN2 cellular inhibition assay (AlphaScreen SureFire P-eIF2α Ser51, borrelidin-treated U2OS cells); type: cell-based; settings: biomarker assay, phosphorylated eIF2α Ser51 in borrelidin-treated U2OS cells
In short: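 Phospho-eIF2α (Ser51) in lysates was quantified by AlphaScreen SureFire after a 1 h, 37 °C treatment of U2OS cells with 10 μM borrelidin and compound at 4-fold dilutions starting from 40 μM final. Inhibition expressed in percent against wells stimulated by borrelidin alone.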

[2] = compounds of Formula II, 4 nM GCN2 kinase
[3] = Enzyme activity for compounds of Formula IV, Ki(app), 25° C.

Sequence of intracellular GCN2 (phosphorylation of the GCN2 substrate eIF2α) (Q9P2K8 whole entry): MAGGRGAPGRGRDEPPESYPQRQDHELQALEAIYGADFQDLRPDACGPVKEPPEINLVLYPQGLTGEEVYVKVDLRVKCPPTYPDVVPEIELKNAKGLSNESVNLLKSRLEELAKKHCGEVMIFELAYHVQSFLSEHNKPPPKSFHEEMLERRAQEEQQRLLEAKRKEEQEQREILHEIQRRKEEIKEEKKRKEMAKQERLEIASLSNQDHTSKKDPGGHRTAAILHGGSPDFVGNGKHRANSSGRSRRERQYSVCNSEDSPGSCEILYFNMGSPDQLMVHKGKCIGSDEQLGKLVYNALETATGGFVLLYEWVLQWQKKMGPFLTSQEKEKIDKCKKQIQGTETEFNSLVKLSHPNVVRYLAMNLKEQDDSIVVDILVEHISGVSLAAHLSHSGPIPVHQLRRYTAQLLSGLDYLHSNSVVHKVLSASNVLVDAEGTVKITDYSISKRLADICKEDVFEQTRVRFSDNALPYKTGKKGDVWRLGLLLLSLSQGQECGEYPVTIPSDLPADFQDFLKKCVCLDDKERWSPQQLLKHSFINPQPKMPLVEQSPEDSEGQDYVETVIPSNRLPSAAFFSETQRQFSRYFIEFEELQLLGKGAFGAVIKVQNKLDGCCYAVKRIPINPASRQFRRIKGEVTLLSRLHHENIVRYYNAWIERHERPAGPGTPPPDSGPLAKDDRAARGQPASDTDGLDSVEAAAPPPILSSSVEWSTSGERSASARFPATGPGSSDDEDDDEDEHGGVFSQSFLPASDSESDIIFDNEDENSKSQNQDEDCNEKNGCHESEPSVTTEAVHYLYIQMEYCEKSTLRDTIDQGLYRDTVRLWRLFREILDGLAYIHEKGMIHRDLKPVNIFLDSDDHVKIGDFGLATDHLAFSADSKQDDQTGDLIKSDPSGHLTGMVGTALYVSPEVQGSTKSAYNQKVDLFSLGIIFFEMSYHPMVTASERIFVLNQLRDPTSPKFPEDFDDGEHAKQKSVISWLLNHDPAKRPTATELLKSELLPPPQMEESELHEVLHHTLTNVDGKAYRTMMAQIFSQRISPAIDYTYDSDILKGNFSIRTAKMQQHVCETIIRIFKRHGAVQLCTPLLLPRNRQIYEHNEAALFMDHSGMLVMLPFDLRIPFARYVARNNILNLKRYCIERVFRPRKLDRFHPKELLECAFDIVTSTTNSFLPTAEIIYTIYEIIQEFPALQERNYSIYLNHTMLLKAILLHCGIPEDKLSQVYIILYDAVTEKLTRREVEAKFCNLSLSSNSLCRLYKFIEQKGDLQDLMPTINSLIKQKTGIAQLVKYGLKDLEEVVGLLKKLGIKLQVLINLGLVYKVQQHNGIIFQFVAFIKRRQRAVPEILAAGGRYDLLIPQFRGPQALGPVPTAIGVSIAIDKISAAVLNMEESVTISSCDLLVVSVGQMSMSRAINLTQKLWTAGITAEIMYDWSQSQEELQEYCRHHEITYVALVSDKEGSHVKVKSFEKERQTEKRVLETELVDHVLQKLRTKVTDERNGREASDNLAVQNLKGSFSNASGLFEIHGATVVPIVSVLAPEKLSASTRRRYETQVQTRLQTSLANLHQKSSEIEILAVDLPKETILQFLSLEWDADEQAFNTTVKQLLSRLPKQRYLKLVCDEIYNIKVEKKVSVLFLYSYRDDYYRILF
Sequence of GCN2 kinase (Q9P2K8 whole entry): as above

| Ki (GCN2 kinase; [2]) | IC50 ([1]; compounds of Formula II) | Ki (GCN2 kinase; [3]) | IC50 ([1]; compounds of Formula IV) | IC50 (GCN2 kinase; compounds of Formula IV, 4 nM GCN2 kinase) | SMILES |
| --- | --- | --- | --- | --- | --- |
| 10 to 1000 nM | > 5000 nM |  |  |  | NS(=O)(=O)C1CCN(c2cc(-c3cnc4ccc(C(F)F)nn34)ncn2)C1 (stereo not drawn) [II-192, 1-(6-(6-(Difluoromethyl)imidazo[1,2-b]pyridazin-3-yl)pyrimidin-4-yl)pyrrolidine-3-sulfonamide] |
|  |  | < 10 nM | < 500 nM |  | CC1CN(c2ccnc(-c3cnc4cnc(Br)cn34)n2)C(C)C(c2cn[nH]c2)N1 (single isomer, unassigned) [IV-288, 6-Bromo-3-(4-(2,5-dimethyl-3-(1H-pyrazol-4-yl)piperazin-1-yl)pyrimidin-2-yl)imidazo[1,2-a]pyrazine] |
|  |  |  | < 500 nM | 10 to 1000 nM | C[C@@H]1C[C@H](c2c[nH]nc2F)CN(c2ccnc(-c3cnc4cnc(C(F)(F)F)cn34)n2)C1 [IV-766] |
| 10 to 1000 nM | 500 to 5000 nM |  |  |  | CS(=O)(=O)NCC1CN(c2cc(-c3cnc4ccc(C(F)F)nn34)ccn2)CCN1 (stereo not drawn) [II-90, N-((4-(4-(6-(Difluoromethyl)imidazo[1,2-b]pyridazin-3-yl)pyridin-2-yl)piperazin-2-yl)methyl)methanesulfonamide] |
|  |  | 100 to 1000 nM | > 5000 nM |  | CC(=O)N1CCN(c2ccnc(-c3cnc4cnc(C5CC5)cn34)n2)CC1 [IV-33, 1-(4-(2-(6-Cyclopropylimidazo[1,2-a]pyrazin-3-yl)pyrimidin-4-yl)piperazin-1-yl)ethan-1-one] |
| < 10 nM | < 500 nM |  |  |  | CC1CC(N=S(C)(C)=O)CN(c2cc(-c3cnc4ccc(C(F)F)nn34)ccn2)C1 (stereo not drawn) [II-716, ((1-(4-(6-(Difluoromethyl)imidazo[1,2-b]pyridazin-3-yl)pyridin-2-yl)-5-methylpiperidin-3-yl)imino)dimethyl-λ^6-sulfanone] |
| 10 to 1000 nM | > 5000 nM |  |  |  | FC(F)c1ccc2ncc(-c3ccnc(N4CCC5(CCNCC5)CC4)c3)n2n1 [II-161, 3-(2-(3,9-Diazaspiro[5.5]undecan-3-yl)pyridin-4-yl)-6-(difluoromethyl)imidazo[1,2-b]pyridazine] |
| < 10 nM | 500 to 5000 nM |  |  |  | CS(=O)(=O)NCC1CCCN(c2cc(-c3cnc4ccc(C(F)F)nn34)cc(OC3CNC3)n2)C1 (stereo not drawn) [II-84, N-((1-(6-(Azetidin-3-yloxy)-4-(6-(difluoromethyl)imidazo[1,2-b]pyridazin-3-yl)pyridin-2-yl)piperidin-3-yl)methyl)methanesulfonamide] |
| < 10 nM | 500 to 5000 nM |  |  |  | CS(=O)(=O)NOC1CCCN(c2cc(-c3cnc4ccc(C(F)F)nn34)ccn2)C1 (stereo not drawn) [II-124, N-((1-(4-(6-(Difluoromethyl)imidazo[1,2-b]pyridazin-3-yl)pyridin-2-yl)piperidin-3-yl)oxy)methanesulfonamide] |
| 10 to 1000 nM | 500 to 5000 nM |  |  |  | CC(=O)N1CCCN(c2cc(-c3cnc4ccc(C(F)F)nn34)ccn2)CC1 [II-163, 1-(4-(4-(6-(Difluoromethyl)imidazo[1,2-b]pyridazin-3-yl)pyridin-2-yl)-1,4-diazepan-1-yl)ethanone] |
| 10 to 1000 nM | 500 to 5000 nM |  |  |  | O=C1NCCC12CCCN(c1cc(-c3cnc4ccc(C(F)F)nn34)ncn1)C2 (stereo not drawn) [II-51, 7-(6-(6-(Difluoromethyl)imidazo[1,2-b]pyridazin-3-yl)pyrimidin-4-yl)-2,7-diazaspiro[4.5]decan-1-one] |
| 10 to 1000 nM | 500 to 5000 nM |  |  |  | CS(=O)(=O)NCC1CC(O)CN(c2cc(-c3cnc4ccc(C(F)F)nn34)ccn2)C1 (stereo not drawn) [II-39, N-((1-(4-(6-(Difluoromethyl)imidazo[1,2-b]pyridazin-3-yl)pyridin-2-yl)-5-hydroxypiperidin-3-yl)methyl)methanesulfonamide] |
| > 1000 nM | > 5000 nM |  |  |  | CS(=O)(=O)NCC1CN(c2cc(-c3cnc4cccnn34)ccn2)CCO1 (stereo not drawn) [II-732, N-((4-(4-(imidazo[1,2-b]pyridazin-3-yl)pyridin-2-yl)morpholin-2-yl)methyl)methanesulfonamide] |
| < 10 nM | < 500 nM |  |  |  | CS(=O)(=O)NCC1CN(c2cc(-c3cnc4ccc(C(F)F)nn34)ccn2)CCO1 (stereo not drawn) [II-149, N-((4-(4-(6-(Difluoromethyl)imidazo[1,2-b]pyridazin-3-yl)pyridin-2-yl)morpholin-2-yl)methyl)methanesulfonamide] |
| < 10 nM | 500 to 5000 nM |  |  |  | CS(=O)(=O)NCC1CCCN(c2cc(-c3cnc4ccc(C(F)F)nn34)cc(N3CC(O)C3)n2)C1 (stereo not drawn) [II-85, N-((1-(4-(6-(Difluoromethyl)imidazo[1,2-b]pyridazin-3-yl)-6-(3-hydroxyazetidin-1-yl)pyridin-2-yl)piperidin-3-yl)methyl)methanesulfonamide] |
| < 10 nM | < 500 nM |  |  |  | CC1C(CNS(C)(=O)=O)N(C)CCN1c1cc(-c2cnc3ccc(C(F)F)nn23)ncn1 (single isomer, unassigned) [II-364, N-((4-(6-(6-(difluoromethyl)imidazo[1,2-b]pyridazin-3-yl)pyrimidin-4-yl)-1,3-dimethylpiperazin-2-yl)methyl)methanesulfonamide] |
| 10 to 1000 nM | > 5000 nM |  |  |  | CS(=O)(=O)N1CCC2(CCN2c2cncc(-c3cnc4ccc(C(F)F)nn34)c2)CC1 [II-42, 6-(Difluoromethyl)-3-(5-(7-(methylsulfonyl)-1,7-diazaspiro[3.5]nonan-1-yl)pyridin-3-yl)imidazo[1,2-b]pyridazine] |
|  |  | 10 to 100 nM | 500 to 5000 nM |  | NC(=O)C1CCCN(c2cccc(-c3cnc4cnc(C(F)F)cn34)n2)C1 (stereo not drawn) [IV-55, 1-(6-(6-(Difluoromethyl)imidazo[1,2-a]pyrazin-3-yl)pyridin-2-yl)piperidine-3-carboxamide] |
| 10 to 1000 nM | 500 to 5000 nM |  |  |  | CCN1CCN(c2cc(-c3cnc4ccc(C(F)F)nn34)ncn2)C(C)C1CNS(C)(=O)=O (single isomer, unassigned) [II-543, N-((4-(6-(6-(difluoromethyl)imidazo[1,2-b]pyridazin-3-yl)pyrimidin-4-yl)-1-ethyl-3-methylpiperazin-2-yl)methyl)methanesulfonamide] |
| 10 to 1000 nM | 500 to 5000 nM |  |  |  | CS(=O)(=O)N[C@@H]1CCCN(c2cc(-c3cnc4ccc(C(F)F)nn34)ncn2)C1 (single isomer, unassigned) [II-405] |
|  |  | 100 to 1000 nM | > 5000 nM |  | Cn1cc(C2CCN(c3ccnc(-c4cnc5cnc(C(F)F)cn45)n3)C2)cn1 (stereo not drawn) [IV-65, 6-(Difluoromethyl)-3-(4-(3-(1-methyl-1H-pyrazol-4-yl)pyrrolidin-1-yl)pyrimidin-2-yl)imidazo[1,2-a]pyrazine] |
| < 10 nM | 500 to 5000 nM |  |  |  | C[C@H]1CN(c2cc(-c3cnc4ccc(C(F)F)nn34)ncn2)C[C@@H]1CNS(C)(=O)=O [II-237, N-(((3R,4R)-1-(6-(6-(Difluoromethyl)imidazo[1,2-b]pyridazin-3-yl)pyrimidin-4-yl)-4-methylpyrrolidin-3-yl)methyl)methanesulfonamide] |
| < 10 nM | < 500 nM |  |  |  | CS(=O)(=O)N1CC2(CCCN(c3cc(-c4cnc5ccc(C(F)F)nn45)ncn3)C2)C1 [II-281, 6-(Difluoromethyl)-3-(6-(2-(methylsulfonyl)-2,6-diazaspiro[3.5]nonan-6-yl)pyrimidin-4-yl)imidazo[1,2-b]pyridazine] |
|  |  | < 10 nM | < 500 nM |  | Fc1n[nH]cc1C1CCCN(c2ccnc(-c3cnc4cnc(C(F)(F)F)cn34)n2)C1 (single isomer, unassigned) [IV-492, 3-(4-(3-(3-Fluoro-1H-pyrazol-4-yl)piperidin-1-yl)pyrimidin-2-yl)-6-(trifluoromethyl)imidazo[1,2-a]pyrazine] |
